# Results published in patent publication US20220213092A1, “BICYCLIC PYRAZOLE BRUTON'S TYROSINE KINASE INHIBITORS” (AbbVie Inc., priority 2020, published 2022).
# pEC50, pIC50: −log10 of the molar value.
# Biological target: T1, BTK (Homo sapiens, UniProt Q06187)
# T1 construct: purchased Nanosyn, Santa Clara, Calif; host or cells: 293HEK
# Test: BTK kinase electrophoretic mobility shift assay (MSA)
# Format: biochemical
# Conditions: not given
# Experimental: Kinase activity, unless otherwise indicated, was measured in vitro using an electrophoretic mobility shift assay (MSA). The phosphorylation of a peptide substrate by BTK and other kinases was measured. The kinase reactions were assembled in a total volume of 25 μL per well in 384 well plates. The following was added to each well: compound buffer (or control); enzyme buffer; and substrate buffer, as further described below.
# The terminated reactions were analyzed using a 12 channel LABCHIP® 3000 microfluidic detection instrument (available from Caliper Life Sciences, Waltham, Mass.). […] Change in the relative fluorescence intensity of the substrate and product peaks was the parameter measured, reflecting enzyme activity. In the presence of an inhibitor, the ratio between product and substrate was altered. The signal of the product decreased, while the signal of the substrate increased. Capillary electrophoregrams (RDA acquisition files) were analyzed using HTS Well Analyzer software (available from Caliper Life Sciences, Waltham, Mass.).
# Activity in each sample was determined as the product to sum ratio (PSR): P/(S+P), where P was the peak height of the product peptide and S was the peak height of the substrate peptide. For each compound, enzyme activity was measured at various concentrations (12 concentrations of compound spaced by 3× dilution intervals). Negative control samples (00 inhibition in the absence of inhibitor) and positive control samples (10000 inhibition, in the presence of 20 mM EDTA) were assembled in replicates of four and were used to calculate 00 inhibition values for each inhibitor at each concentration. Percent inhibition (Pinh) was determined using following equation: Pinh=(PSR0%−PSRinh)/(PSR0%−PSR100%)*100, where PSRinh was the product sum ratio in the presence of inhibitor, PSR0% was the average product sum ratio in the absence of inhibitor and PSR100% was the average product sum ratio in 100%−inhibition control samples.
# The IC50 values of inhibitors were determined by 4 parameter sigmoidal dose response model fitting of the inhibition curves (Pinh versus inhibitor concentration) using XLfit® 4 software (available from IDBS, Boston, Mass.).
# T1 sequence (Q06187 whole entry): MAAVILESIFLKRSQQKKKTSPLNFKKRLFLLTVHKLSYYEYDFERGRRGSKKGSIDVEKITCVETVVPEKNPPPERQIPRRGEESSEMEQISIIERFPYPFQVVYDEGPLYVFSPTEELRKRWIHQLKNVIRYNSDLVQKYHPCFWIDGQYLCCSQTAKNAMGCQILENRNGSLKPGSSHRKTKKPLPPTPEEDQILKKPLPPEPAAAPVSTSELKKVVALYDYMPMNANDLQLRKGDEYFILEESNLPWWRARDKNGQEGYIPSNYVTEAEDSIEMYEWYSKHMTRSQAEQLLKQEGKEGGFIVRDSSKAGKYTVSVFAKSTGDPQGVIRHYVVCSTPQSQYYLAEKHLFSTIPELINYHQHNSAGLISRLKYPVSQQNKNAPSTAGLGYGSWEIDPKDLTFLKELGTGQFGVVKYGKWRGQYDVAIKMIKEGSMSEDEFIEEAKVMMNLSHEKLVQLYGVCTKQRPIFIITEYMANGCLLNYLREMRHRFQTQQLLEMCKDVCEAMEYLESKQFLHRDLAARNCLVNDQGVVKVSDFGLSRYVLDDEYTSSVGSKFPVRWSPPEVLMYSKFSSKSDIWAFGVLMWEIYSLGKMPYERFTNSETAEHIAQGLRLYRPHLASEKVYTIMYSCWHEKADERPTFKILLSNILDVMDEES
row,Structure (SMILES),pIC50
1,"NC(=O)c1c2c(nn1-c1ccc(Oc3ccccc3)cc1)C(N1CCN(C(=O)CF)CC1)CCN2 (centres unmarked) [Example 49, 7-[4-(fluoroacetyl)piperazin-1-yl]-2-(4-phenoxyphenyl)-4,5,6,7-tetrahydro-2H-pyrazolo[4,3-b]pyridine-3-carboxamide]",6.40

# Same assay, conditions: 50 μM ATP, 0.5 nM BTK enzyme (Nanosyn-293HEK, WT), 3 hours at 25° C.; all examples except 50, 51, 62 and 63; read-out: BTK IC50
row,pIC50,Structure (SMILES)
1,9.37,"C=CC(=O)N1CCC(C2CCNc3c2nn(-c2ccc(Oc4ccccc4)cc2)c3C(N)=O)CC1 (racemic) [Example 1, Rac-2-(4-phenoxyphenyl)-7-[1-(prop-2-enoyl)piperidin-4-yl]-4,5,6,7-tetrahydro-2H-pyrazolo[4,3-b]pyridine-3-carboxamide]"
2,8.61,"C=CC(=O)N1CCC(C2CCNc3c2nn(-c2ccc(Oc4ccccc4)cc2F)c3C(N)=O)CC1 (centres unmarked) [Example 37, 2-(2-fluoro-4-phenoxyphenyl)-7-[1-(prop-2-enoyl)piperidin-4-yl]-4,5,6,7-tetrahydro-2H-pyrazolo[4,3-b]pyridine-3-carboxamide]"
3,8.45,"C=CC(=O)N1CCN(C2CCNc3c2nn(-c2ccc(Oc4ccccc4F)cc2)c3C(N)=O)CC1 (centres unmarked) [Example 38, 2-[4-(2-fluorophenoxy)phenyl]-7-[4-(prop-2-enoyl)piperazin-1-yl]-4,5,6,7-tetrahydro-2H-pyrazolo[4,3-b]pyridine-3-carboxamide]"
4,7.80,"C=CC(=O)N1CC2CC(C1)N2C1CCNc2c1nn(-c1ccc(Oc3ccccc3)cc1)c2C(N)=O (centres unmarked) [Example 41, 2-(4-phenoxyphenyl)-7-[3-(prop-2-enoyl)-3,6-diazabicyclo[3.1.1]heptan-6-yl]-4,5,6,7-tetrahydro-2H-pyrazolo[4,3-b]pyridine-3-carboxamide]"
5,7.93,"C=CC(=O)N1CCN(C2CCNc3c2nn(-c2ccc(Oc4ccccc4)cc2)c3C(N)=O)C[C@H]1C (stereo partly drawn) [Example 42, 7-[(3R)-3-methyl-4-(prop-2-enoyl)piperazin-1-yl]-2-(4-phenoxyphenyl)-4,5,6,7-tetrahydro-2H-pyrazolo[4,3-b]pyridine-3-carboxamide]"
6,7.12,"CN(C)C/C=C/C(=O)N1CCN([C@@H]2CCNc3c2nn(-c2ccc(Oc4ccccc4)cc2)c3C(N)=O)CC1 [Example 46, (7R)-7-{4-[(2E)-4-(dimethylamino)but-2-enoyl]piperazin-1-yl}-2-(4-phenoxyphenyl)-4,5,6,7-tetrahydro-2H-pyrazolo[4,3-b]pyridine-3-carboxamide]"
7,6.09,"C/C=C/C(=O)N1CCN([C@@H]2CCNc3c2nn(-c2ccc(Oc4ccccc4)cc2)c3C(N)=O)CC1 [Example 47, (7R)-7-{4-[(2E)-but-2-enoyl]piperazin-1-yl}-2-(4-phenoxyphenyl)-4,5,6,7-tetrahydro-2H-pyrazolo[4,3-b]pyridine-3-carboxamide]"
8,7.29,"NC(=O)/C=C/C(=O)N1CCN([C@@H]2CCNc3c2nn(-c2ccc(Oc4ccccc4)cc2)c3C(N)=O)CC1 [Example 48, (7R)-7-{4-[(2E)-4-amino-4-oxobut-2-enoyl]piperazin-1-yl}-2-(4-phenoxyphenyl)-4,5,6,7-tetrahydro-2H-pyrazolo[4,3-b]pyridine-3-carboxamide]"
9,7.48,"C=CC(=O)N1CCN(C2CCNc3c2nn(-c2ccc(Oc4ccccc4)cc2Cl)c3C(N)=O)CC1 (centres unmarked) [Example 52, 2-(2-chloro-4-phenoxyphenyl)-7-[4-(prop-2-enoyl)piperazin-1-yl]-4,5,6,7-tetrahydro-2H-pyrazolo[4,3-b]pyridine-3-carboxamide]"
10,8.12,"C=CC(=O)N1CCN(C2CCNc3c2nn(-c2ccc(Oc4cc(F)cc(F)c4)cc2)c3C(N)=O)CC1 (centres unmarked) [Example 55, 2-[4-(3,5-difluorophenoxy)phenyl]-7-[4-(prop-2-enoyl)piperazin-1-yl]-4,5,6,7-tetrahydro-2H-pyrazolo[4,3-b]pyridine-3-carboxamide]"
11,7.83,"C=CC(=O)N1CCN(C2CCNc3c2nn(-c2ccc(Oc4ccc(F)cc4)cc2)c3C(N)=O)CC1 (centres unmarked) [Example 56, 2-[4-(4-fluorophenoxy)phenyl]-7-[4-(prop-2-enoyl)piperazin-1-yl]-4,5,6,7-tetrahydro-2H-pyrazolo[4,3-b]pyridine-3-carboxamide]"
12,7.57,"C=CC(=O)N1CCN([C@H]2CCNc3c2nn(-c2ccc(Oc4ccccc4C(F)(F)F)cc2)c3C(N)=O)CC1 [Example 61, (7S)-7-[4-(prop-2-enoyl)piperazin-1-yl]-2-{4-[2-(trifluoromethyl)phenoxy]phenyl}-4,5,6,7-tetrahydro-2H-pyrazolo[4,3-b]pyridine-3-carboxamide]"
13,7.63,"C=CC(=O)N1CCN([C@H]2CCNc3c2nn(-c2ccc(Oc4ccccc4C)cc2)c3C(N)=O)CC1 [Example 94, (7S)-2-[4-(2-methylphenoxy)phenyl]-7-[4-(prop-2-enoyl)piperazin-1-yl]-4,5,6,7-tetrahydro-2H-pyrazolo[4,3-b]pyridine-3-carboxamide]"
14,7.85,"C=CC(=O)N1CCN([C@H]2CCNc3c2nn(-c2ccc(Oc4cccc(C)c4)cc2)c3C(N)=O)CC1 [Example 95, (7S)-2-[4-(3-methylphenoxy)phenyl]-7-[4-(prop-2-enoyl)piperazin-1-yl]-4,5,6,7-tetrahydro-2H-pyrazolo[4,3-b]pyridine-3-carboxamide]"
15,7.23,"C=CC(=O)N1CCN([C@H]2CCNc3c2nn(-c2ccc(Oc4ccc(C)cc4)cc2)c3C(N)=O)CC1 [Example 96, (7S)-2-[4-(4-methylphenoxy)phenyl]-7-[4-(prop-2-enoyl)piperazin-1-yl]-4,5,6,7-tetrahydro-2H-pyrazolo[4,3-b]pyridine-3-carboxamide]"
16,6.92,"C=CC(=O)N1CCN([C@H]2CCNc3c2nn(-c2ccc(Oc4ccccc4OC)cc2)c3C(N)=O)CC1 [Example 97, (7S)-2-[4-(2-methoxyphenoxy)phenyl]-7-[4-(prop-2-enoyl)piperazin-1-yl]-4,5,6,7-tetrahydro-2H-pyrazolo[4,3-b]pyridine-3-carboxamide]"
17,7.84,"C=CC(=O)N1CCN([C@H]2CCNc3c2nn(-c2ccc(Oc4cccc(OC)c4)cc2)c3C(N)=O)CC1 [Example 98, (7S)-2-[4-(3-methoxyphenoxy)phenyl]-7-[4-(prop-2-enoyl)piperazin-1-yl]-4,5,6,7-tetrahydro-2H-pyrazolo[4,3-b]pyridine-3-carboxamide]"
18,6.87,"C=CC(=O)N1CCN([C@H]2CCNc3c2nn(-c2ccc(Oc4ccc(OC)cc4)cc2)c3C(N)=O)CC1 [Example 99, (7S)-2-[4-(4-methoxyphenoxy)phenyl]-7-[4-(prop-2-enoyl)piperazin-1-yl]-4,5,6,7-tetrahydro-2H-pyrazolo[4,3-b]pyridine-3-carboxamide]"
19,7.33,"C=CC(=O)N1CCN([C@H]2CCNc3c2nn(-c2ccc(Oc4ccccc4OC(F)(F)F)cc2)c3C(N)=O)CC1 [Example 100, (7S)-7-[4-(prop-2-enoyl)piperazin-1-yl]-2-{4-[2-(trifluoromethoxy)phenoxy]phenyl}-4,5,6,7-tetrahydro-2H-pyrazolo[4,3-b]pyridine-3-carboxamide]"
20,7.19,"C=CC(=O)N1CCN([C@H]2CCNc3c2nn(-c2ccc(Oc4cccc(OC(F)(F)F)c4)cc2)c3C(N)=O)CC1 [Example 101, (7S)-7-[4-(prop-2-enoyl)piperazin-1-yl]-2-{4-[3-(trifluoromethoxy)phenoxy]phenyl}-4,5,6,7-tetrahydro-2H-pyrazolo[4,3-b]pyridine-3-carboxamide]"
21,< 6.00,"C=CC(=O)N1CCN([C@H]2CCNc3c2nn(-c2ccc(Oc4ccc(OC(F)(F)F)cc4)cc2)c3C(N)=O)CC1 [Example 102, (7S)-7-[4-(prop-2-enoyl)piperazin-1-yl]-2-{4-[4-(trifluoromethoxy)phenoxy]phenyl}-4,5,6,7-tetrahydro-2H-pyrazolo[4,3-b]pyridine-3-carboxamide]"

# Biological target: T2, Phosphorylation of Y223 of BTK (Homo sapiens, UniProt Q06187)
# T2 construct: host or cells: healthy human whole blood, 3 donors
# Test: Whole blood compound screening, phosphorylation of Y223 site of BTK (MSD assay)
# Format: cell-based
# Conditions: healthy human whole blood, 2 hours at 37° C., 3 separate donors; read-out: WB BTK-pY223 EC50
# Experimental: Healthy human whole blood (WB) was collected from […]™ Technologies or […]® in sodium heparinized tubes. Whole blood was stored at ambient temperature to avoid coagulation. Each compound was tested in 3 separate donors. Compound stock solutions (10 mM) were used to generate dose titration (8 concentrations, starting concentration 10 μM, 1:4 dilution) in appropriate volume of dimethyl sulfoxide (0.2%). Whole blood was incubated with compounds in 96-well plates for 2 hours in tissue culture incubators at 37° C. under a 5% CO2 atmosphere. The whole blood was lysed in equal volume of lysis buffer (Cell Signaling Technology®, Danvers, Mass.) containing complete protease inhibitor tablet, PhosSTOP™ tablet, sodium orthovanadate and sodium fluoride and phenylmethanesulfonyl fluoride solution. The lysed whole blood was then frozen at −80° C. for overnight.
# Phosphorylation of Y223 of BTK was measured using an MSD assay (Meso Scale Diagnostics, LLC, Rockville, Md.). The thawed lysed whole blood was incubated with the capturing antibody rabbit anti-human BTK (D3H5) (Cell Signaling Technology, Danvers, Mass.) at 4° C. overnight. After washing out the unbound samples, the detection antibody biotinylated rabbit anti-pY223-BTK(D9T6H) (Cell Signaling Technology®, Danvers, Mass.) was added to the plates. After washing out the unbound antibodies, SULFO-TAG Streptavidin (Meso Scale Diagnostics, LLC, Rockville, Md.) was used for detection on Meso Sector S600 (Meso Scale Diagnostics, LLC, Rockville, Md.).
# The EC50 values were determined using software from Dotmatics. The activity of exemplary compounds is illustrated below.
# T2 sequence (Q06187 whole entry): as above
row,pEC50,Structure (SMILES)
1,7.37,"C=CC(=O)N1CCC(C2CCNc3c2nn(-c2ccc(Oc4ccccc4)cc2)c3C(N)=O)CC1 (racemic) [Example 1, Rac-2-(4-phenoxyphenyl)-7-[1-(prop-2-enoyl)piperidin-4-yl]-4,5,6,7-tetrahydro-2H-pyrazolo[4,3-b]pyridine-3-carboxamide]"
